# Measured values as given in ChEMBL document CHEMBL5030511, “Targeting KRAS Mutant Cancers via Combination Treatment: Discovery of a 5-Fluoro-4-(3H)-quinazolinone Aryl Urea pan-RAF Kinase Inhibitor” (J Med Chem, 2021).
# pIC50, pKi: −log10 of the molar value. Calls of active or inactive are those of the source. No cut-off for these calls is given here.
# Tests used:
# [1] = tested on: A-375; assay: Antiproliferative activity against human A-375 cells harboring BRAF mutant assessed as reduction in cell viability incubated for 24 hrs by Click-iT EdU cell proliferation imaging assay; assay type: functional, cell-based; details: A-375, 24 h
# [2] = tested on: A549; assay: Antiproliferative activity against human A549 cells harboring KRAS mutant assessed as reduction in cell viability incubated for 24 hrs by Click-iT EdU cell proliferation imaging assay; assay type: functional, cell-based; details: A549, 24 h
# [3] = tested on: A549; assay: Synergistic antiproliferative activity against human A549 cells harboring KRAS mutant assessed as reduction in cell viability incubated for 24 hrs in presence of 100 nM cobimetinib by Click-iT EdU cell proliferation imaging assay; assay type: functional, cell-based; details: A549, 24 h
# [4] = target: RAF proto-oncogene serine/threonine-protein kinase (Homo sapiens, UniProt P04049, Y340D/Y341D)
# Chain of RAF proto-oncogene serine/threonine-protein kinase (P04049 whole entry Y340D/Y341D): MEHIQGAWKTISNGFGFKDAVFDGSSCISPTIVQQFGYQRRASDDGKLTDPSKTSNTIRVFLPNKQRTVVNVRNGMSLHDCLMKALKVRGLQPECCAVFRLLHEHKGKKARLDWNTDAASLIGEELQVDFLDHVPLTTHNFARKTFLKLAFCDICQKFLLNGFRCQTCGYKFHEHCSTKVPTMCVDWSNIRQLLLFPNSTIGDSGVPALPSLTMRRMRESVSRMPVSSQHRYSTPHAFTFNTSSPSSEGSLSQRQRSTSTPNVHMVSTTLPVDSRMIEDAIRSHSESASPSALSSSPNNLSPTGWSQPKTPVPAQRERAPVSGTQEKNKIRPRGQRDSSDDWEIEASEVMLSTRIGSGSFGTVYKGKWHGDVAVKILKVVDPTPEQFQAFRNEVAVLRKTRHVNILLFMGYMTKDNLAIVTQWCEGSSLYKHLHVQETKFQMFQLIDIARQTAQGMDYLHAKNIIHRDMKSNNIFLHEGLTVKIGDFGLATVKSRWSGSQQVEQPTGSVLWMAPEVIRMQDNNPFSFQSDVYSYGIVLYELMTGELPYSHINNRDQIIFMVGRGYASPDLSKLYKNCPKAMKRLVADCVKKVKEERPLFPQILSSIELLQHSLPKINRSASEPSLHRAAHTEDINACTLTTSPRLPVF
# [5] = target: Serine/threonine-protein kinase B-raf (Homo sapiens, UniProt P15056)
# Chain of Serine/threonine-protein kinase B-raf (P15056 whole entry): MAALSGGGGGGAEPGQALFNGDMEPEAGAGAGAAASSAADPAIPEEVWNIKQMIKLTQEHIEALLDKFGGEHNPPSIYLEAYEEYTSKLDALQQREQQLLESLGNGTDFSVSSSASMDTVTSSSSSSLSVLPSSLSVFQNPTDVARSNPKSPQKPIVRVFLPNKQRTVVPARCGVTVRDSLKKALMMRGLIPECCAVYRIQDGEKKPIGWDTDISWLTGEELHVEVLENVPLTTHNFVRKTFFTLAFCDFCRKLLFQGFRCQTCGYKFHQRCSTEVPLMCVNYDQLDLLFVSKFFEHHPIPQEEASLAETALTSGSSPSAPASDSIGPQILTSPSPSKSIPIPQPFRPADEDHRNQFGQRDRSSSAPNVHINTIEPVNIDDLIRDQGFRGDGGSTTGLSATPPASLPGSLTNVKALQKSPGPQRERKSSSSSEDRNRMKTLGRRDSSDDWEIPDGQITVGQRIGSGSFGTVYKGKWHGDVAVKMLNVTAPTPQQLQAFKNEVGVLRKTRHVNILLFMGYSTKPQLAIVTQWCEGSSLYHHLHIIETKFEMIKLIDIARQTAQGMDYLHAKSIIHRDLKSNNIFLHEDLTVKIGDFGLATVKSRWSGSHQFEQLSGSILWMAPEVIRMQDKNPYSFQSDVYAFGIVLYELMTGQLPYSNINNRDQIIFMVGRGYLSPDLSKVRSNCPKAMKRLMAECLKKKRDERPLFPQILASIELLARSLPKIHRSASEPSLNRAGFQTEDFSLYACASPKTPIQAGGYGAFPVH
# Description: Inhibition of BRAF (unknown origin) (416 to 766) inactive MAP2K1 as substrate preincubated for 30 mins measured after 90 mins by DELFIA assay
# [6] = Clearance in mouse at 1 mg/kg, iv; assay type: ADME, organism-based; details: in vivo
# [7] = Volume of distribution at steady state in mouse at 1 mg/kg, iv; assay type: ADME, organism-based; details: in vivo, read-out: Vdss
# [8] = Half life in mouse at 1 mg/kg, iv; assay type: ADME, organism-based; details: in vivo
# [9] = Oral bioavailability in mouse using methylcellulose-tween at 5 mg/kg; assay type: ADME, organism-based; details: in vivo
# [10] = Oral bioavailability in mouse using amorphous spray-dried dispersion at 25 mg/kg; assay type: ADME, organism-based; details: in vivo
# [11] = Kinetic solubility of the compound in pH 7.4 PBS buffer; assay type: physicochemical; details: read-out: Kinetic_solubility
# [12] = Lipophilicity, log D of the compound at pH 7.4; assay type: physicochemical; details: buffer
# [13] = Apparent permeability from apical to basolateral side in dog MDCK cells; assay type: ADME, cell-based, Canis lupus familiaris
# [14] = tested on: HCT-116; assay: Antitumour activity against human HCT-116 cells harboring KRAS mutant xenografted in NCR nude mouse assessed as tumor growth inhibition at 5 mg/kg, po qd for 21 days; assay type: functional, organism-based; details: time 21.0 day
# [15] = tested on: Mus musculus; assay: Inhibition of pERK in human HCT-116 cells xenografted NCR nude mouse at 5 mg/kg, po qd for 4 days and measured after 2 to 8 hrs; assay type: functional, organism-based; details: time 4.0 day
# [16] = Oral bioavailability in mouse using PEG 400 at 5 mg/kg; assay type: ADME, organism-based; details: in vivo
# [17] = Oral bioavailability in mouse using amorphous spray-dried dispersion at 30 mg/kg; assay type: ADME, organism-based; details: in vivo
# [18] = tested on: A549; assay: Synergistic antiproliferative activity against human A549 cells harboring KRAS mutant assessed as inhibition of cell growth in presence of Cobimetinib by EdU staining based assay; assay type: functional; details: dose 0.02-5 µM
# [19] = tested on: HCT-116; assay: Synergistic antiproliferative activity against human HCT-116 cells harboring KRAS mutant assessed as inhibition of cell growth at 0.003 to 0.93 uM in presence of Cobimetinib by EdU staining based assay; assay type: functional; details: dose 0.003-0.93 µM
# [20] = tested on: HCT-116; assay: Antitumour activity against human HCT-116 cells harboring KRAS mutant xenografted in NCR nude mouse assessed as tumor growth inhibition at 10 mg/kg, po bid for 21 days; assay type: functional, organism-based; details: time 21.0 day
# [21] = tested on: HCT-116; assay: Antitumour activity against human HCT-116 cells harboring KRAS mutant xenografted in NCR nude mouse assessed as tumor growth inhibition at 10 mg/kg, po bid for 21 days in presence of 5 mg/kg Cobimetinib; assay type: functional; details: HCT-116, po, 504 h, time 21 day, read-out: TGI
# [22] = Toxicity in NCR nude mouse xenografted with human HCT-116 cells harboring KRAS mutant assessed as body weight loss at 10 mg/kg, po bid for 21 days; assay type: organism-based; details: in vivo, 504 h, time 21 day
# [23] = tested on: Mus musculus; assay: Induction of stabilization of CRAF phosphorylation in human HCT-116 cells xenografted NCR nude mouse assessed as decrease in pMEK level at 10 mg/kg, po bid for 4 days and measured after 2 to 8 hrs; assay type: functional, organism-based; details: time 4.0 day
# [24] = tested on: Mus musculus; assay: Induction of stabilization of CRAF phosphorylation in human HCT-116 cells xenografted NCR nude mouse assessed as decrease in pERK level at 10 mg/kg, po bid for 4 days and measured after 2 to 8 hrs; assay type: functional, organism-based; details: time 4.0 day
# [25] = tested on: Mus musculus; assay: Induction of stabilization of CRAF phosphorylation in human HCT-116 cells xenografted NCR nude mouse assessed as decrease in pRSK level at 10 mg/kg, po bid for 4 days and measured after 2 to 8 hrs; assay type: functional, organism-based; details: time 4.0 day
# [26] = tested on: Mus musculus; assay: Induction of CRAF phosphorylation in human HCT-116 cells xenografted NCR nude mouse at 10 mg/kg, po bid for 4 days in presence of Cobimetinib and measured after 2 to 8 hrs; assay type: functional, organism-based; details: time 4.0 day
# [27] = tested on: Mus musculus; assay: Induction of stabilization of CRAF phosphorylation in human HCT-116 cells xenografted NCR nude mouse assessed as decrease in pERK level at 10 mg/kg, po bid for 4 days in presence of Cobimetinib and measured after 8 hrs; assay type: functional, organism-based; details: time 4.0 day
# [28] = tested on: Mus musculus; assay: Induction of stabilization of CRAF phosphorylation in human HCT-116 cells xenografted NCR nude mouse assessed as decrease in pRSK level at 10 mg/kg, po bid for 4 days in presence of Cobimetinib and measured after 8 hrs; assay type: functional, organism-based; details: time 4.0 day
# [29] = tested on: A-375; assay: Additive antiproliferative activity against human A-375 cells harboring BRAF mutant assessed as inhibition of cell growth in presence of Cobimetinib by EdU staining based assay; assay type: functional
# [30] = Toxicity in NCR nude mouse xenografted with human HCT-116 cells harboring KRAS mutant assessed as body weight loss at 10 mg/kg, po bid for 21 days in presence of 5 mg/kg Cobimetinib; assay type: organism-based; details: in vivo, 504 h, time 21 day
compound,measurement,setting,value
CNc1cc(-c2cccnc2Nc2cc(NC(=O)NCCC(C)(C)C)c(F)cc2C)ncn1,pIC50,[1],7.03
same,pIC50,[2],5.62
same,pIC50,[3],6.68
same,pKi,[4],10.22
same,pKi,[5],> 10.10
Cc1cc(F)c(NC(=O)NCCC(C)(C)C)cc1NC(=O)c1cccc2c(N)ncnc12,pIC50,[1],8.10
same,pIC50,[2],6.28
same,pIC50,[3],7.01
same,pKi,[4],> 10.30
same,pKi,[5],> 10.10
Cc1cc(F)c(NC(=O)NCCC(C)(C)C)cc1Nc1ccc2ncn(C)c(=O)c2c1,pIC50,[1],6.39
same,pIC50,[2],5.57
same,pIC50,[3],6.60
same,clearance,[6],50 mL/min/kg
same,Vd,[7],0.94 L/kg
same,half-life,[8],30 min
same,bioavailability,[9],0%
same,bioavailability,[10],2%
same,solubility kinetic,[11],< 1 µM
same,logD,[12],4.47
same,Papp A→B,[13],3.6 ×10⁻⁶ cm/s
same,pKi,[4],> 10.30
same,pKi,[5],> 10.10
O=C(c1ccc(F)c(F)c1Nc1ccc(I)cc1F)N1CC(O)([C@@H]2CCCCN2)C1,Activity,[14],Active
same,inhibition,[15],Active
COc1n[nH]c2ncc(NC(=O)c3cc(NC(=O)NCCC(C)(C)C)c(F)cc3C)cc12,pIC50,[1],7.32
same,pIC50,[2],6.01
same,pIC50,[3],6.80
same,pKi,[4],> 10.30
Cc1cc(F)c(NC(=O)NCCC(C)(C)C)cc1Nc1ccc2ncn(C)c(=O)c2c1F,pIC50,[1],6.95
same,pIC50,[2],5.54
same,pIC50,[3],6.77
same,clearance,[6],27 mL/min/kg
same,Vd,[7],1.4 L/kg
same,half-life,[8],48 min
same,bioavailability,[16],26%
same,bioavailability,[17],60%
same,solubility kinetic,[11],3 µM
same,logD,[12],4.47
same,Papp A→B,[13],13 ×10⁻⁶ cm/s
same,Activity,[18],Dose-Dependent Effect
same,Activity,[19],Active
same,Activity,[20],Active
same,inhibition in vivo at 10 mg/kg,[21],110%
same,Activity,[22],10%
same,Activity,[23],Active
same,Activity,[24],Active
same,Activity,[25],Active
same,Activity,[26],Active
same,Activity,[27],Active
same,Activity,[28],Active
same,Activity,[29],Active
same,Activity,[30],Non-Toxic
same,pKi,[4],10.21
same,pKi,[5],> 10.10
Cc1cc(F)c(NC(=O)NCCC(C)(C)C)cc1NC(=O)N(C)c1cc(N)ncn1,pIC50,[1],7.07
same,pIC50,[2],5.85
same,pIC50,[3],6.98
same,pKi,[4],> 10.30
same,pKi,[5],> 10.10
